What was measured:
[1] = test system: Tetranychus urticae; experiment: Effect against Tetranychus urticae; format: in vivo; settings: 400 ppm spray on bean plants, mixed population, 6 days at 25° C.
Protocol: Young bean plants are colonised with a mixed population of Tetranychus urticae and, one day later, are sprayed with an aqueous emulsion spray mixture containing 400 ppm of active ingredient. The plants are subsequently incubated for 6 days at 25° C. and then evaluated. The percentage reduction of the population (% response) is determined by comparing the total number of dead eggs, larvae, and adults on the treated plants with those on the untreated plants.

[2] = test system: Heliothis virescens; experiment: Effect on Heliothis virescens caterpillars; format: in vivo; settings: 400 ppm spray on soya plants, first-instar larvae, six days
Protocol: Young soya plants are sprayed with an aqueous emulsion spray mixture containing 400 ppm of active ingredient. After drying of the spray deposit, the soya plants are colonised with 10 first-instar larvae of Heliothis virescens and placed in a plastic container. Six days later they are evaluated. The percentage reduction of the population and percentage reduction in feeding damage (% response) is determined by comparing the number of dead larvae and the extent of feeding damage on the treated plants with those on the untreated plants.

[3] = test system: Panonychus ulmi; experiment: Effect against Panonychus ulmi (resistant to organophosphates und carbaryl); format: in vivo; settings: 400 ppm spray on apple seedlings, after 14 days
Protocol: Apple seedlings are colonised with adult females of Panonychus ulmi. After seven days, the infected plants are sprayed with an aqueous emulsion spray mixture containing 400 ppm of the test compound until they are dripping wet, and cultivated in the greenhouse. After 14 days, they are evaluated. The percentage reduction of the population (% response) is determined by comparing the number of dead spider mites on the treated plants with those on the untreated plants.

[4] = test system: Nilaparvata lugens; experiment: Effect against Nilaparvata lugens; format: in vivo; settings: 400 ppm spray on rice plants, second and third instar larvae, 21 days
Protocol: Rice plants are sprayed with an aqueous emulsion spray mixture containing 400 ppm of active ingredient. After the spray coating has dried on, the rice plants are colonised with second and third instar larvae of plant and leaf-hoppers. 21 days later they are evaluated. The percentage reduction of the population (% response) is determined by comparing the number of surviving plant and leaf-hoppers on the treated plants with those on the untreated plants.

[5] = test system: Spodoptera littoralis; experiment: Effect on Spodoptera littoralis; format: in vivo; settings: 400 ppm spray on soybean plants, third-instar larvae, three days
Protocol: Young soybean plants are sprayed with an aqueous emulsion spray mixture containing 400 ppm of active ingredient. After the spray deposit has dried, the plants are colonised with 10 third-instar larvae of Spodoptera littoralis and placed in a plastic container. Three days later they are evaluated. The percentage reduction of the population and of the feeding damage (% response) is determined by comparing the total number of dead caterpillars and the feeding damage on the treated plants with those on the untreated plants.

[6] = test system: Crocidolomia binotalis; experiment: Effect against Crocidolomia binotalis; format: in vivo; settings: 400 ppm spray on cabbage plants, third-instar caterpillars, three days
Protocol: Young cabbage plants are sprayed with an aqueous emulsion spray mixture containing 400 ppm of active ingredient. After the spray coating has dried on, the cabbage plants are colonised with 10 third-instar caterpillars of Crocidolomia binotalis and placed in a plastic container. Three days later they are evaluated. The percentage reduction of the population and of the feeding damage (% response) is determined by comparing the total number of dead caterpillars and the feeding damage on the treated plants with those on the untreated plants.

[7] = test system: Aonidiella aurantii; experiment: Effect against Aonidiella aurantii; format: in vivo; settings: 400 ppm, potato tubers immersed, 10 to 12 weeks
Protocol: Potato tubers are colonised with crawlers of Aonidiella aurantii. After about 2 weeks, the potatoes are immersed in an aqueous emulsion or suspension spray mixture containing 400 ppm of active ingredient. After the tubers have dried off, they are incubated in a plastic container. Evaluation is effected 10 to 12 weeks later by comparing the survival rate of the crawlers of the first secondary generation of the treated population with that of untreated control batches.

[8] = test system: Bemisia tabaci; experiment: Effect against Bemisia tabaci; format: in vivo; settings: 400 ppm spray on dwarf bean plants with nymphs, after a further 14 days
Source text: Dwarf bean plants are placed in gauze cages and colonised with adults of Bemisia tabaci. Following oviposition, all adults are removed. Ten days later, the plants and the nymphs thereon are sprayed with an aqueous emulsion spray mixture containing 400 ppm of the active ingredient. After a further 14 days, the percentage hatching rate of the eggs is compared with that of untreated controls.

[9] = test system: Boophilus microplus; experiment: In vitro effect on Boophilus microplus; settings: 100 to 0.32 ppm; BIARRA and ULAM strain identical
Protocol: Four test series each of 10 engorged female adults of Boophilus microplus are stuck to a plastic plate and covered for 1 hour with a wad of cottonwool soaked with an aqueous suspension or emulsion of the test substance. The test is carried out with concentrations of 100, 32, 10, 3.2, 1.0 and 0.32 ppm. The wad of cottonwool is then removed, and the ticks are incubated for 28 days for the eggs to be laid. The effect on Boophilus microplus is assessed according to the following 5 criteria:
1. Number of dead females (immobile with black discoloration) before ovipositon;
2. Number of ticks surviving for several days, but no eggs laid;
3. Number of cases in which eggs are laid, but nothing is hatched;
This test is carried out with both the BIARRA and the ULAM strain, and the results in both cases are identical.

[10] = test system: Musca domestica of an OP-resistant strain; experiment: Effect against Musca domestica; format: in vivo; settings: 250 ppm in sugar cube, 25° C., after 24 hours, read-out: mortality rate (response)
Protocol: A sugar cube is treated with a solution of the test substance in such a way that the concentration of test substance in the sugar, after drying over night, is 250 ppm. The cube treated in this way is placed on an aluminium dish with wet cottonwool and 10 adult Musca domestica of an OP-resistant strain. It is covered with a beaker and incubated at 25° C. The mortality rate is determined after 24 hours.

[11] = test system: Ctenocephalides felis; experiment: In vitro effect on eggs, larvae, or pupae of the cat flea Ctenocephalides felis; settings: 15, 1.5, 0.15 and 0.015 ppm test solutions, after 21 days
Protocol: Acetonic test solutions are prepared containing test substances in concentrations of 15, 1.5, 0.15 and 0.015 ppm. 9.9 ml of each test solution is mixed with 14.85 g of culture medium for flea larvae and dried for about 12 hours. The slightly clumped, dry culture medium is mechanically pulverized again until it is homogeneous and free-flowing. It is then transferred to bottles for the breeding of fleas. To each bottle, 100 to 200 flea eggs are added, the bottles are loosely closed with a wad of cottonwool and placed in an incubator at 25 to 26° C. and a relative humidity of about 60%. After 21 days, the effect of the test substances in the different concentrations is evaluated and the lowest effective concentration determined using a stereomicroscope. The activity is evaluated on the basis of the hatching rate, larva development, pupation, and the hatching of young fleas. Enantiomers A of formula (I) show a pronounced effect in this test.

Fc1cccc(F)c1C1=NC(c2ccc(-c3ccc(C(F)(F)F)cc3)cc2)CO1 (single isomer, unassigned) [1.1, 2-(2,6-difluoro-phenyl)-4-(4′-trifluoromethylbiphenyl-4-yl)-4,5-dihydro-oxazole]
percentage reduction of the population (% response) [1]: more than 80%
percentage reduction of the population and percentage reduction in feeding damage (% response) [2]: more than 80%
percentage reduction of the population (% response) [3]: more than 80%
percentage reduction of the population (% response) [4]: more than 80%
percentage reduction of the population and of the feeding damage (% response) [5]: more than 80%
percentage reduction of the population and of the feeding damage (% response) [6]: more than 80%
response (survival rate of the crawlers of the first secondary generation vs untreated) [7]: more than 80%
response (percentage hatching rate of the eggs vs untreated controls) [8]: more than 80%
activity on Boophilus microplus (in words) [9]: most active test substance
mortality at 250 ppm [10]: > 80%
effect on hatching rate, larva development, pupation and hatching of young fleas (in words) [11]: most active test substance

Source: patent US20020137781A1, “Preparation and use of enantiomer-pure 2,4-disubstituted oxazolines” (priority 1999, published 2002)
